Reference: paper PMC4769088, “Antifungal Activity and Action Mechanism of Histatin 5-Halocidin Hybrid Peptides against Candida ssp” (PLoS ONE, 2016)
Where a SMILES comes first, the peptide text is derived from it. Bridges are numbered along the chain shown (N, C = ends). Roman numbers before positions name the chains, in order.

Tests used:
[1] = CD spectra, secondary structure analysis; format: physicochemical; settings: solvent Laminarin (20 mg/ml in buffer), 200 μg/ml peptide
[2] = system: Candida cells; assay: ROS production (DCFH-DA fluorometric assay); format: cell-based, Candida albicans; settings: 32 μg/ml peptide, 120 min, 10 μM DCFH-DA, ex 485 / em 530 nm
Procedure: The amount of ROS produced by Candida cells treated with peptides was measured by a fluorometric assay with DCFHDA as described earlier. Briefly, the cells were adjusted to an OD600 of 1 in 10 ml of NaPB and centrifuged at 5000 ×g for 10 min. The cell pellet was then resuspended in NaPB and treated with peptides alone or with ascorbic acid. After the addition of 10 μM 2`,7`dichlorofluorescein diacetate (DCFH-DA), the fluorescence intensity of the induced ROS production was recorded every 10 min at excitation and emission wavelengths of 485 nm and 530 nm, respectively, in a Perkin Elmer 2030 Reader (Victor X3).  Fig 7 The effect of peptides on ROS generation. Time-dependency of DCF fluorescence as a measure of ROS generation (A) and killing activity (B) were determined in Candida cells treated with peptides (32 μg/ml) or peptides + Ascorbic acid (200 μg/ml) by Perkin Elmer 2030 reader (VictorX 3) and colony count assay, respectively. The fluorescence obtained with the cells treated with 10 mM of H2O2 served as positive control and the cells without peptide served as negative control. The fluorescent intensity of DCF was recorded every 10 min for 120 min at excitation and emission wavelengths of 485 and 530 nm, respectively.

[3] = system: C. guilliermondi CCARM 14018; format: cell-based; settings: CCARM 14018, 24 h
Procedure: (§1) To determine the candidacidal activity of the peptides, we used Candida strains obtained from the Culture collection of antimicrobial resistant microbes at Seoul Women’s University in Korea. These included three Candida albicans (CCARM 14020, 14021, 14022), Candida guillermondi and Candida tropicalis. In addition, Candida albicans SC5413 was kindly provided by Dr Jeong-Yoon Kim at the Department of Microbiology & Molecular Biology, Chungnam University, Korea. Yeast were cultured overnight at 30°C in 10 ml of yeast extract-peptone-dextrose (YPD) broth (Qbiogene), then diluted in 10 ml of YPD broth to OD600 = 0.2 and grown for an additional 4 h with shaking at 30°C until OD600 = 0.8 in order to obtain mid-log phase cultures. The peptides (Hst 5, P113, HHP1, HHP2, PH1, PH2, di-PH1, di-PH2, WP1, di-WP2, di-15Hc and di-18Hc) in this study were synthesized by using standard solid-phase synthesis protocols and were purified by reversed-phase high-performance liquid chromatography at Anygen Inc. (Korea). FITC-labeled peptides (F-Hst5, F-P113, F-HHP1, F-di-PH2, F-di-WP2 and F-di-18Hc) were also synthesized by 6-aminohexnoic acid linker at Anygen (Korea) for confocal experiments.
(§2) The candidacidal activities of the peptides were tested by using standard microdilution plate assays, radial diffusion assays and broth dilution assay slightly modified from the procedure recommended by the National Committee for Clinical Laboratory Standards. For the candidacidal assays, C. albicans cells were grown in YPD medium and washed twice with 10 mM sodium phosphate buffer (NaPB; Na2HPO4, NaH2PO4, pH 7.4). The cells (1 x 10^6) were then mixed with different concentrations of peptides and incubated at 30°C with constant shaking for 60 min. For energy depletion experiments, cells were pre-incubated with 10 mM NaPB containing 5 mM NaN3 at 30°C for 60 min before the addition of peptides. The cell suspensions were diluted in 10 mM NaPB and aliquots of 500 cells were spread onto YPD agar plates then incubated for 24 h at 30°C to visualize the surviving colonies. Cell survival was expressed as a percentage of that for the control, and the loss of viability was calculated as [1 x (number of colonies from peptide-treated cells/number of colonies from control cells)] x 100. Candidacidal assays were performed in triplicate. For the radial diffusion assay, C. albicans cells were grown in YPD medium overnight and washed twice with 10 mM NaPB. Washed yeast-phase C. albicans cells (1 x 10^6 CFU) were trapped in thin underlay gels containing 9 mM sodium phosphate, 1 mM sodium citrate buffer, 1% (wt/vol) agarose (A6013; Sigma), and 0.3 mg of Sabouraud dextrose broth (Difco)/ml. After incubation at 37°C for 3 h, a 10 ml overlay gel of 1% agarose and 6% Sabouraud dextrose broth was poured on the underlay gel and then the plates were incubated overnight at 37°C. The clear-zone diameters were measured to the nearest 0.1 mm and graphed against the peptide concentration. Zone diameters were expressed in units (0.1 mm = 1 unit). For the broth dilution assay, the Candida strains were cultured in LYM broth for 18 h at 30°C. The numbers of yeasts were counted using a hemocytometer. Stock peptide solutions were prepared to a concentration of 320 μg/ml in distilled water, and were then serially diluted twofold, to 5 μg/ml. 100 μl aliquots of the diluted culture media containing candida cells (1 x 10^3) were dispensed into the wells of 96-well polypropylene microtiter plates (Costar 3879, Corning, NY), to which peptide solution (11 μl) was then added. In the experiments conducted to assess the candidacidal activity of peptides in the presence of salt, we used LYM supplemented with 150 mM NaCl for the culture medium, which was mixed with the peptide solution. The antifungal activities were evaluated after 24 h of incubation at 30°C by the observation of visible turbidity the wells. […]

[4] = system: C. guilliermondi CCARM 14019; format: cell-based; settings: CCARM 14019, 24 h
Procedure: as §1, §2

[5] = system: C. tropicalis; assay: Broth dilution assay (MIC); format: cell-based, Candida tropicalis; settings: 150 mM NaCl
Procedure: as §1
The candidacidal activities of the peptides were tested by using standard microdilution plate assays, radial diffusion assays and broth dilution assay slightly modified from the procedure recommended by the National Committee for Clinical Laboratory Standards. For the candidacidal assays, C. albicans cells were grown in YPD medium and washed twice with 10 mM sodium phosphate buffer (NaPB; Na2HPO4, NaH2PO4, pH 7.4). The cells (1 x 10^6) were then mixed with different concentrations of peptides and incubated at 30°C with constant shaking for 60 min. For energy depletion experiments, cells were pre-incubated with 10 mM NaPB containing 5 mM NaN3 at 30°C for 60 min before the addition of peptides. The cell suspensions were diluted in 10 mM NaPB and aliquots of 500 cells were spread onto YPD agar plates then incubated for 24 h at 30°C to visualize the surviving colonies. Cell survival was expressed as a percentage of that for the control, and the loss of viability was calculated as [1 x (number of colonies from peptide-treated cells/number of colonies from control cells)] x 100. Candidacidal assays were performed in triplicate. For the radial diffusion assay, C. albicans cells were grown in YPD medium overnight and washed twice with 10 mM NaPB. […] The clear-zone diameters were measured to the nearest 0.1 mm and graphed against the peptide concentration. […] The numbers of yeasts were counted using a hemocytometer. […] The antifungal activities were evaluated after 24 h of incubation at 30°C by the observation of visible turbidity the wells. […]

## CC(C)C[C@H](NC(=O)[C@@H](N)Cc1c[nH]c2ccccc12)C(=O)N[C@@H](CC(N)=O)C(=O)N[C@@H](C)C(=O)N[C@@H](CCCCN)C(=O)N[C@@H](CCCNC(=N)N)C(=O)N[C@@H](Cc1c[nH]cn1)C(=O)N[C@@H](Cc1c[nH]cn1)C(=O)NCC(=O)N[C@@H](Cc1ccc(O)cc1)C(=O)N[C@@H](CCCCN)C(=O)N[C@@H](CSSC[C@H](NC(=O)[C@H](CCCCN)NC(=O)[C@H](Cc1ccc(O)cc1)NC(=O)CNC(=O)[C@H](Cc1c[nH]cn1)NC(=O)[C@H](Cc1c[nH]cn1)NC(=O)[C@H](CCCNC(=N)N)NC(=O)[C@H](CCCCN)NC(=O)[C@H](C)NC(=O)[C@H](CC(N)=O)NC(=O)[C@H](CC(C)C)NC(=O)[C@@H](N)Cc1c[nH]c2ccccc12)C(=O)N[C@@H](CCCCN)C(=O)N[C@@H](Cc1ccccc1)C(=O)N[C@@H](Cc1c[nH]cn1)C(N)=O)C(=O)N[C@@H](CCCCN)C(=O)N[C@@H](Cc1ccccc1)C(=O)N[C@@H](Cc1c[nH]cn1)C(N)=O [di-WP2] (I: H-WLNAKRHHGYKCKFH-NH2 / II: H-WLNAKRHHGYKCKFH-NH2; disulfide I:12-II:12 (inferred); N-terminus assumed)
[1]
  Secondary structure (%) Beta: 24.5%
  Secondary structure (%) Helix: 0.0%
  Secondary structure (%) Random: 54.7%
  Secondary structure (%) Turn: 20.8%
[2]
  DCF fluorescence intensity (ROS generation): little fluorescence
[3]
  MICs: 2 to 4 µg/mL
[4]
  MICs: 4 to 8 µg/mL
[5]
  killing activities against C. tropicalis in 150 mM NaCl salt: retained
